Publication PMC5065787 (Bioorganic & medicinal chemistry, 2016)
Residue numbers refer to the chain shown, from its start. Names and notes keep the numbering of the source.

Tests used:
h15-LOX-1 = details: cited from earlier work
[1] = cited from earlier work
dog LOX ortholog = details: cited from earlier work
rat LOX ortholog = details: cited from earlier work
WT h15-LOX-1 = target: T1, WT h15-LOX-1 (Homo sapiens, UniProt P16050); assay: Steady-state substrate kinetics, WT; format: biochemical; details: error in parentheses
T1 sequence (P16050 1-662): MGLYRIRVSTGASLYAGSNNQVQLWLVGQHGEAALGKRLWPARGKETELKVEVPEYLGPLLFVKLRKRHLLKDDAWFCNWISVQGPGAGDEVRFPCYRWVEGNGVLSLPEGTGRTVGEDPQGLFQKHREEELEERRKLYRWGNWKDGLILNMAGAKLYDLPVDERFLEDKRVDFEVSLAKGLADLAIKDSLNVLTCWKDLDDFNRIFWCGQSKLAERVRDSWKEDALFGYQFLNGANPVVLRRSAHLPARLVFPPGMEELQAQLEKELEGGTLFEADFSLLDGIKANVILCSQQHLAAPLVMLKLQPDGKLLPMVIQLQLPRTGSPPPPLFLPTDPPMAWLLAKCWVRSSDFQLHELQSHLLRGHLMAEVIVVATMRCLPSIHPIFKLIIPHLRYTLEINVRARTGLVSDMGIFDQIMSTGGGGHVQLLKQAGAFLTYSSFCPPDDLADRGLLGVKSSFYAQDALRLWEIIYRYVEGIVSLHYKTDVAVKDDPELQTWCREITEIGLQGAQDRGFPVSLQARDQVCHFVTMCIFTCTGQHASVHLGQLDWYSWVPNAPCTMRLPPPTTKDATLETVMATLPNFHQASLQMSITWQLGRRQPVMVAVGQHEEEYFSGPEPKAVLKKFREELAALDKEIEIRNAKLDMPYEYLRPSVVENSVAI

h15-LOX-1 F414I = target: T2, h15-LOX-1 F414I (Homo sapiens, UniProt P16050, F414I); assay: Steady-state substrate kinetics, F414I; format: biochemical; details: error in parentheses
T2 sequence (P16050 1-662 F414I): T1 sequence (P16050 1-662) with F414I

[2] = cited from earlier work; remark: listed apart in the source
[3] = possibly due to cellular lability of the ester moiety; cited from earlier work
[4] = substrate: CCCCC/C=C\C/C=C\C/C=C\C/C=C\CCCC(=O)O; assay: Steady-state substrate kinetics, Q547L; format: biochemical, human; details: other: Q547L; error in parentheses; unit inferred; pH 7.5
[5] = substrate: CCCCC/C=C\C/C=C\C/C=C\C/C=C\CCCC(=O)O; assay: Steady-state substrate kinetics, E356Q; format: biochemical, human; details: other: E356Q; error in parentheses; unit inferred; pH 7.5
[6] = substrate: CCCCC/C=C\C/C=C\C/C=C\C/C=C\CCCC(=O)O; assay: Steady-state substrate kinetics, F414I; format: biochemical, human; details: other: F414I; error in parentheses; unit inferred; pH 7.5
[7] = substrate: CCCCC/C=C\C/C=C\C/C=C\C/C=C\CCCC(=O)O; assay: Steady-state substrate kinetics, L407A; format: biochemical, human; details: other: L407A; error in parentheses; unit inferred; pH 7.5
[8] = substrate: CCCCC/C=C\C/C=C\C/C=C\C/C=C\CCCC(=O)O; assay: Steady-state substrate kinetics, F414W; format: biochemical, human; details: other: F414W; error in parentheses; unit inferred; pH 7.5

Molecule: CCCCCc1ccc(S(=O)(=O)NCCc2c(-c3ccc(C(F)(F)F)cc3)[nH]c3ccccc23)cc1 [tryptamine sulfonamide]
- potency against h15-LOX-1 (h15-LOX-1): 21 nM

Molecule: O=C(Nc1ccc(F)cc1Cl)c1c[nH]nn1 [BLX-2477, N-(2-chloro-4-fluorophenyl)triazole-4-carboxamide]
- adverse off-target effects in mini-pigs [1]: adverse off-target effects
- potency against h15-LOX-1 (h15-LOX-1): 99 nM
- potency against dog LOX ortholog (dog LOX ortholog): not potent
- potency against rat LOX ortholog (rat LOX ortholog): not potent

Molecule: CCCCC/C=C\C/C=C\CCCCCCCC(=O)O [LA, linoleic acid]
- kcat (WT h15-LOX-1; no unit in table (sec^−1)): 11 (0.4)
- Km (WT h15-LOX-1; substrate 1-20 µM, unit inferred): 7.7 µM
- kcat (h15-LOX-1 F414I; no unit in table (sec^−1)): 1.6 (0.03)
- Km (h15-LOX-1 F414I; unit inferred): 6.1 µM

Molecule: CNc1oc(-c2cccc3ccccc23)nc1C#N [ML351, 5-(methylamino)-2-(naphthalene-1-yl)oxazole-4-carbonitrile]
- in vivo activity in mice [2]: exhibits in vivo activity

Molecule: O=C(OCC#CCSc1nnc(-c2cccc3ccccc23)o1)c1cccs1 [ML094, 4-(5-(Naphthalen-1-yl)-1,3,4-oxadiazol-2-ylthio)but-2-ynylthiophene-2-carboxylate]
- activity in vivo [3]: no activity

B1: h15-LOX-1 Q547L (Homo sapiens; Q547L) (protein)
chain: T1 sequence (P16050 1-662) with Q547L
- Km [4]: 11 µM

B2: h15-LOX-1 E356Q (Homo sapiens; E356Q) (protein)
chain: T1 sequence (P16050 1-662) with E356Q
- Km [5]: 4.1 µM

B3: h15-LOX-1 F414I (Homo sapiens; F414I) (protein)
chain: T1 sequence (P16050 1-662) with F414I
- Km [6]: 11 µM

B4: h15-LOX-1 L407A (Homo sapiens; L407A) (protein)
chain: T1 sequence (P16050 1-662) with L407A
- Km [7]: 5.5 µM

B5: h15-LOX-1 F414W (Homo sapiens; F414W) (protein)
chain: T1 sequence (P16050 1-662) with F414W
- Km [8]: 6.5 µM
